Assay results from the supplement of paper PMC6045584.
± gives the standard deviation of the averaged measurements.

Legend:
VINORELBINE = compound: CCC1=C[C@@H]2CN(C1)Cc1c([nH]c3ccccc13)[C@@](C(=O)OC)(c1cc3c(cc1OC)N(C)[C@H]1[C@@](O)(C(=O)OC)[C@H](OC(C)=O)[C@]4(CC)C=CCN5CC[C@]31[C@@H]54)C2 [VINORELBINE]; assay: area under dose-response curve of surviving fraction (unscaled, Aref=0) (surviving fraction x log10(nM)); higher = more resistant; conditions: exposure time: 5 days; dose range 0.5-1000 nM
Summary of the method: (§1)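 Tumour cell lines in 384-well plates were exposed for five days to eight inhibitor concentrations from 0.5 to 1000 nM. Viability was read by CellTiter-Glo luminescence, normalised to DMSO-only wells, in three screens per line. Dose-response survival curves were fitted to surviving fractions by 3-parameter logistic regression in the drc R package. Area under the curve is the unscaled activity area (Aref = 0) over log10 dose.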

PLX-4720 = compound: CCCS(=O)(=O)Nc1ccc(F)c(C(=O)c2c[nH]c3ncc(Cl)cc23)c1F [PLX-4720]; assay: as above; conditions: exposure time: 5 days; dose range 0.5-1000 nM
Summary of the method: as §1

[1] = compound: O=C(NOCC1CC1)c1ccc(F)c(F)c1Nc1ccc(I)cc1Cl; assay: surviving fraction relative to DMSO-only wells; higher = less growth inhibition; conditions: exposure time: 5 days
Summary of the method: (§2)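 Continuous five-day exposure to inhibitors at 0.5, 1, 5, 10, 50, 100, 500 and 1000 nM started 24 hours after log-phase tumour cell lines were seeded at 250–500 cells per well in 384-well plates. Luminescence was read after 10 minutes at room temperature. Viability is given as surviving fraction, meaning CellTiter-Glo luminescence normalised to the median of DMSO-only wells.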

ERLOTINIB = compound: C#Cc1cccc(Nc2ncnc3cc(OCCOC)c(OCCOC)cc23)c1 [ERLOTINIB]; assay: as above; conditions: exposure time: 5 days
Summary of the method: as §2

GEMCITABINE = compound: Nc1ccn([C@@H]2O[C@H](CO)[C@@H](O)C2(F)F)c(=O)n1 [GEMCITABINE]; assay: area under dose-response curve of surviving fraction (unscaled, Aref=0) (surviving fraction x log10(nM)); higher = more resistant; conditions: exposure time: 5 days; dose range 0.5-1000 nM
Summary of the method: as §1

MK0752 = compound: O=C(O)CC[C@H]1CC[C@@](c2cc(F)ccc2F)(S(=O)(=O)c2ccc(Cl)cc2)CC1 [MK0752]; assay: as above; conditions: exposure time: 5 days; dose range 0.5-1000 nM
Summary of the method: as §1

Row | Test System | area under dose-response curve (VINORELBINE) | area under dose-response curve (PLX-4720) | surviving fraction ([1]; 0.5 nM) | surviving fraction ([1]; 1 nM) | surviving fraction ([1]; 5 nM) | surviving fraction ([1]; 10 nM) | surviving fraction ([1]; 50 nM) | surviving fraction ([1]; 100 nM) | surviving fraction ([1]; 500 nM) | surviving fraction ([1]; 1000 nM) | surviving fraction (ERLOTINIB; 0.5 nM) | surviving fraction (ERLOTINIB; 1 nM) | surviving fraction (ERLOTINIB; 5 nM) | surviving fraction (ERLOTINIB; 10 nM) | surviving fraction (ERLOTINIB; 100 nM) | surviving fraction (ERLOTINIB; 500 nM) | surviving fraction (ERLOTINIB; 1000 nM) | area under dose-response curve (GEMCITABINE) | surviving fraction (ERLOTINIB; 50 nM) | area under dose-response curve (MK0752)
1 | OSHN BONE | 1.83 | 3.06 | 0.969 ± 0.026 | 0.983 ± 0.029 | 0.979 ± 0.019 | 0.988 ± 0.028 | 0.969 ± 0.03 | 0.989 ± 0.016 | 0.973 ± 0.018 | 1 ± 0.027 | 1.07 ± 0.029 | 1.1 ± 0.016 | 1.1 ± 0.026 | 1.07 ± 0.029 | 1.163 ± 0.0072 | 1.161 ± 0.001 | 1.1173 ± 0.0011 |  |  | 
2 | HS57T BREAST |  |  | 0.909 ± 0.02 | 0.945 ± 0.022 | 0.933 ± 0.056 | 0.965 ± 0.033 | 0.824 ± 0.025 | 0.815 ± 0.013 | 0.676 ± 0.021 | 0.686 ± 0.019 | 1.03 ± 0.086 | 1.02 ± 0.071 | 1.06 ± 0.046 | 1.1 ± 0.052 | 1.04 ± 0.074 | 0.999 ± 0.046 | 0.971 ± 0.074 |  |  | 
3 | SCC36 HEADNECK | 1.6 | 2.88 | 1.09 ± 0.037 | 1.15 ± 0.03 | 1.09 ± 0.035 | 1.18 ± 0.12 | 1.03 ± 0.042 | 0.956 ± 0.057 | 0.776 ± 0.082 | 0.78 ± 0.087 |  | 0.929 ± 0.089 | 1.06 ± 0.032 | 1.07 ± 0.057 | 0.82 ± 0.033 | 0.548 ± 0.059 | 0.397 ± 0.038 | 2.34 |  | 
4 | MG63 BONE | 1.86 | 3.07 | 0.9313 ± 0.0065 | 0.969 ± 0.018 | 0.976 ± 0.016 | 0.997 ± 0.017 | 0.935 ± 0.0096 | 0.957 ± 0.011 | 0.85 ± 0.018 | 0.859 ± 0.022 |  | 1.08 ± 0.041 | 1.12 ± 0.014 | 1.1 ± 0.019 | 1.1 ± 0.047 | 1.07 ± 0.066 |  | 1.03 | 1.14 ± 0.045 | 
5 | 22RV1 PROSTATE | 1.53 | 3.09 | 0.93 ± 0.034 | 1.03 ± 0.044 | 0.917 ± 0.04 | 0.851 ± 0.038 | 0.714 ± 0.068 | 0.6767 ± 0.0032 | 0.631 ± 0.037 | 0.526 ± 0.019 | 1.1 ± 0.11 | 1.01 ± 0.12 | 1.03 ± 0.048 | 1 ± 0.028 | 0.956 ± 0.17 | 0.991 ± 0.18 | 1.08 ± 0.021 |  | 1.04 ± 0.072 | 3.57
6 | HOSMNG BONE | 2.25 |  | 1 ± 0.092 | 0.992 ± 0.059 | 0.999 ± 0.082 | 1.01 ± 0.027 | 0.992 ± 0.12 | 1.02 ± 0.084 | 0.991 ± 0.1 | 1.06 ± 0.03 |  | 1 ± 0.041 | 0.915 ± 0.044 | 0.947 ± 0.078 |  | 1.1 ± 0.064 | 0.957 ± 0.044 | 1.49 | 0.963 ± 0.1 | 3.3
7 | 143B BONE | 1.92 |  | 0.887 ± 0.14 | 0.98 ± 0.0057 | 0.97 ± 0.018 | 1 ± 0.037 | 0.857 ± 0.13 | 0.957 ± 0.037 | 0.841 ± 0.028 | 0.542 ± 0.021 |  | 1.11 ± 0.067 | 1.13 ± 0.067 |  | 1.17 ± 0.067 | 1.19 ± 0.14 | 1.15 ± 0.16 |  | 1.15 ± 0.053 | 3.49
8 | SUM149 BREAST | 1.46 |  | 0.375 ± 0.011 | 1.04 ± 0.067 | 0.908 ± 0.059 | 0.912 ± 0.032 | 0.512 ± 0.024 | 0.755 ± 0.1 | 0.407 ± 0.031 | 0.277 ± 0.053 | 1.1 ± 0.12 | 1.11 ± 0.12 | 1.01 ± 0.13 | 0.966 ± 0.082 | 0.75 ± 0.03 | 0.454 ± 0.042 | 0.434 ± 0.033 | 0.539 | 0.922 ± 0.13 | 
9 | SG28 HEADNECK | 2.47 | 2.51 | 0.871 ± 0.049 | 1.03 ± 0.061 | 0.836 ± 0.024 | 0.932 ± 0.099 | 0.801 ± 0.06 | 0.781 ± 0.065 | 0.633 ± 0.023 | 0.616 ± 0.017 | 1.2 ± 0.12 | 1.1 ± 0.021 | 1.13 ± 0.07 |  | 1.097 ± 0.0071 | 0.546 ± 0.052 | 1.23 ± 0.1 |  |  | 3.56
10 | SCC47 HEADNECK | 1.84 | 3.12 | 0.82 ± 0.063 | 0.844 ± 0.011 | 0.951 ± 0.013 | 0.973 ± 0.087 | 0.928 ± 0.089 | 0.907 ± 0.044 | 0.628 ± 0.058 | 0.658 ± 0.024 | 1.13 ± 0.079 | 1.11 ± 0.015 | 1.231 ± 0.0078 | 1.17 ± 0.092 | 1.07 ± 0.021 | 0.822 ± 0.052 | 0.724 ± 0.037 | 2.22 | 1.15 ± 0.051 | 
11 | SUM159 BREAST | 1.98 |  | 1.06 ± 0.29 | 1.03 ± 0.12 | 1.11 ± 0.36 | 1.03 ± 0.24 | 0.84 ± 0.2 | 0.726 ± 0.1 | 0.518 ± 0.11 | 0.455 ± 0.023 | 1.11 ± 0.039 | 1.1 ± 0.033 | 1.09 ± 0.023 | 1.07 ± 0.024 | 1.05 ± 0.015 | 1.07 ± 0.012 | 1.06 ± 0.016 | 1.68 | 1.07 ± 0.013 | 
12 | SUM44 BREAST | 1.61 | 3.17 | 0.951 ± 0.042 | 0.954 ± 0.062 | 1.04 ± 0.013 | 1.05 ± 0.032 | 1.07 ± 0.064 | 1.03 ± 0.043 | 1.02 ± 0.082 | 1.03 ± 0.047 | 1.31 ± 0.45 | 1.19 ± 0.29 | 1.28 ± 0.4 | 1.21 ± 0.26 | 1.32 ± 0.36 | 1.39 ± 0.53 | 1.29 ± 0.38 |  | 1.34 ± 0.49 | 3.38
13 | MDAMB134 BREAST | 2.38 | 2.51 | 0.871 ± 0.27 | 1.03 ± 0.16 | 0.933 ± 0.067 | 0.869 ± 0.075 | 0.809 ± 0.097 | 0.732 ± 0.11 | 0.556 ± 0.044 | 0.711 ± 0.15 |  | 0.92 ± 0.024 | 0.899 ± 0.018 | 0.91 ± 0.059 | 1.15 ± 0.17 |  | 1.08 ± 0.088 |  | 1.13 ± 0.033 | 3.51
14 | KPD BONE | 2.29 | 3.19 | 1.17 ± 0.41 | 0.967 ± 0.047 | 1.032 ± 0.007 | 0.977 ± 0.037 | 0.986 ± 0.065 | 0.96 ± 0.032 | 0.968 ± 0.041 | 0.922 ± 0.055 | 1.07 ± 0.11 | 1.03 ± 0.042 | 1.06 ± 0.076 | 1.07 ± 0.075 | 1.11 ± 0.035 | 1.07 ± 0.11 | 1.05 ± 0.096 |  | 1.18 ± 0.035 | 3.43
15 | HMLE3 BREAST | 1.81 | 2.8 | 0.845 ± 0.061 | 0.91 ± 0.028 | 0.922 ± 0.053 | 0.862 ± 0.017 | 0.733 ± 0.032 | 0.745 ± 0.048 | 0.525 ± 0.03 | 0.612 ± 0.001 | 1.07 ± 0.021 |  | 1.1 ± 0.038 | 1.07 ± 0.026 | 1.17 ± 0.077 | 0.976 ± 0.15 | 0.916 ± 0.013 | 1.1 |  | 
